US10376481B2, “Compounds and methods for inhibiting NHE-mediated antiport in the treatment of disorders associated with fluid retention or salt overload and gastrointestinal tract disorders” (ARDELYX, INC, priority 2012, dated 2019)

Columns and labels:
human NHE3 = molecular target: T1, human NHE3 (Homo sapiens, UniProt P48764); experiment: Cell-based assay of NHE-3 activity (human NHE3 inhibition assay); set-up: expressed in transfected cells; host or cells: Opossum kidney (OK) cells (ATCC), electroporated; conditions: OK cells with human NHE-3 gene, BCECF pH recovery, 0-30 μM test compound; for IC50: read-out: Human NHE3 pIC50 (converted)
T1 sequence (P48764 26-834): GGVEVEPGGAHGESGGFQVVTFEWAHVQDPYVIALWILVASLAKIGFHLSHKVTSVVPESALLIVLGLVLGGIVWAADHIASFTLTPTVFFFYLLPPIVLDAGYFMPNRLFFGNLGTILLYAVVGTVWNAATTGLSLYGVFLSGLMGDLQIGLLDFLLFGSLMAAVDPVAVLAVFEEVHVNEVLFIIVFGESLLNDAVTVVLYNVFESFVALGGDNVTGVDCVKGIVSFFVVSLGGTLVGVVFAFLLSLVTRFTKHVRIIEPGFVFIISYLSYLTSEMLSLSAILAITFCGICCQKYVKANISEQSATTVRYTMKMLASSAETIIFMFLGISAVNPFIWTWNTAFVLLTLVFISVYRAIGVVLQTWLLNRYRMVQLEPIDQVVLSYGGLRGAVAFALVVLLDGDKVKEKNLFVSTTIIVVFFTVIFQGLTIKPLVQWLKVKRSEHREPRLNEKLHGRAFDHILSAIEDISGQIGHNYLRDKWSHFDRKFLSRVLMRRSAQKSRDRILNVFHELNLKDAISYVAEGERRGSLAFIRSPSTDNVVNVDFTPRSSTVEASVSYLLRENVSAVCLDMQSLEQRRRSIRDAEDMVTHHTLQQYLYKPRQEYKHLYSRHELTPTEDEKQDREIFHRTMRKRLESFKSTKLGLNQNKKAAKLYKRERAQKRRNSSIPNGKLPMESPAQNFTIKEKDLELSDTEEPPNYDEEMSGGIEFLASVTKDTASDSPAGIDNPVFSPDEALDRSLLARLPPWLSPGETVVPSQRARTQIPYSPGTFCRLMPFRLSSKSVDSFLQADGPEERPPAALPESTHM
Protocol: Rat or human NHE-3-mediated Na^+-dependent H^+ antiport was measured using a modification of the pH sensitive dye method originally reported by Paradiso (Proc. Natl. Acad. Sci. USA. (1984) 81(23): 7436-7440). Opossum kidney (OK) cells were obtained from the ATCC and propagated per their instructions. The rat NHE-3 gene (GenBank M85300) or the human NHE-3 gene (GenBank NM_004174.1) was introduced into OK cells via electroporation, and cells were seeded into 96 well plates and grown overnight. Medium was aspirated from the wells, cells were washed twice with NaCl-HEPES buffer (100 mM NaCl, 50 mM HEPES, 10 mM glucose, 5 mM KCl, 2 mM CaCl2, 1 mM MgCl2, pH 7.4), then incubated for 30 min at room temperature with NH4Cl-HEPES buffer (20 mM NH4Cl, 80 mM NaCl, 50 mM HEPES, 5 mM KCl, 2 mM CaCl2, 1 mM MgCl2, pH 7.4) containing 5 μM bis(acetoxymethyl) 3,3′-(3′,6′-bis(acetoxymethoxy)-5-((acetoxymethoxy)carbonyl)-3-oxo-3H-spiro[isobenzofuran-1,9′-xanthene]-2′,7′-diyl)dipropanoate (BCECF-AM). Cells were washed twice with Ammonium free, Na^+-free HEPES (100 mM choline, 50 mM HEPES, 10 mM glucose, 5 mM KCl, 2 mM CaCl2, 1 mM MgCl2, pH 7.4) and incubated in the same buffer for 10 minutes at room temperature to lower intracellular pH. […] Initial rates were plotted as the average 2 or more replicates, and pIC50 values were estimated using GraphPad Prism.

[1] = test system: absorption of sodium from the intestinal lumen; experiment: Inhibition of intestinal sodium absorption: rat urinary sodium and fecal form 16 h post-dose; format: in vivo, Sprague-Dawley rats; conditions: for response vs control in vivo at 10 mg/kg / response vs control in vivo at 3 mg/kg: urine 16 h post-dose, read-out: uNa Result, uNa (% of vehicle); for FFS (fecal form score): 16 h post-dose, scale 1-5, group average
Protocol: Urinary sodium concentration and fecal form were measured to assess the ability of selected example compounds to inhibit the absorption of sodium from the intestinal lumen. Eight-week old Sprague-Dawley rats were purchased from Charles River Laboratories (Hollister, Calif.), were housed 2 per cage, and acclimated for at least 3 days before study initiation. Animals were fed Harlan Teklad Global 2018 rodent chow (Indianapolis, Ind.) and water ad libitum throughout the study and maintained in a standard light/dark cycle of 6 AM to 6 PM. On the day of the study, between 4 PM and 5 PM, a group of rats (n=6) were dosed via oral gavage with test compound or vehicle (water) at a volume of 10 mL/kg. After dose administration animals were placed in individual metabolic cages where they were also fed the same chow in meal form and watered ad libitum. At 16 h post-dose, the urine samples were collected and fecal form was assessed by two independent observations. Fecal forms were scored according to a common scale associated with increasing fecal water to the wettest observation in the cage's collection funnel (1, normal pellet; 2, pellet adhering to sides of collection funnel due to moisture; 3, loss of normal pellet shape; 4, complete loss of shape with a blotting pattern; 5, liquid fecal streams evident). A rat's fecal form score (FFS) was determined by averaging both observational scores for all rats within a group (n=6). The vehicle group average was 1. For urine samples, the volumes were determined gravimetrically and centrifuged at 3,600×g. The supernatants were diluted 100-fold in deionized Milli-Q water then filtered through a 0.2 μm GHP Pall AcroPrep filter plate (Pall Life Sciences, Ann Arbor, Mich.) prior to analysis by ion chromatography. Ten microliters of each filtered extract was injected onto a Dionex ICS-3000 ion chromatograph system (Dionex, Sunnyvale, Calif.). Cations were separated by an isocratic method using 25 mM methanesulfonic acid as the eluent on an IonPac CS12A 2 mm i.d.×250 mm, 8 μm particle size cation exchange column (Dionex). Sodium was quantified using standards prepared from a cation standard mix containing Li^+, Na^+, NH4^+, K^+, Mg^2+, and Ca^2+ (Dionex). The mean mass of sodium urinated for every group in the 16 h period was determined with the vehicle group usually urinating approximately 21 mg sodium. The urine Na (uNa) for rats in the test groups were expressed as a percentage of the vehicle mean and the means were compared to that of the vehicle group by utilizing a one-way analysis of variance coupled with a Dunnett's post hoc test.

| Structure (SMILES) | IC50 (human NHE3) [µM] | response vs control in vivo at 10 mg/kg ([1]; oral gavage 10 mg/kg) [%] | other results |
| --- | --- | --- | --- |
| CN(C)[C@H]1Cc2c(Cl)cc(Cl)cc2[C@@H]1Oc1ccc(S(=O)(=O)NCCOCCOCCNC(=O)Nc2ccc(NC(=O)NCCOCCOCCNS(=O)(=O)c3ccc(O[C@H]4c5cc(Cl)cc(Cl)c5C[C@@H]4N(C)C)cc3)cc2)cc1 [Example 2, (S,S)—N,N′-(2,2′-(2,2′-(2,2′-(1,4-phenylenebis(azanediyl))bis(oxomethylene)bis(azanediyl)bis(ethane-2,1-diyl))bis(oxy)bis(ethane-2,1-diyl))bis(oxy)bis(ethane-2,1-diyl))bis(4-((1S,2S)-4,6-dichloro-2-(dimethylamino)-2,3-dihydro-1H-inden-1-yloxy)benzenesulfonamide)] | – | – | Human NHE3 pIC50 (human NHE3): C (NHE3 pIC50 >7) |
| N[C@@H]1CCCN([C@H]2Cc3ccccc3[C@@H]2Oc2ccc(S(=O)(=O)NCCOCCOCCNC(=O)NCCCCNC(=O)NCCOCCOCCNS(=O)(=O)c3ccc(O[C@H]4c5ccccc5C[C@@H]4N4CCC[C@@H](N)C4)cc3)cc2)C1 [Example 28] | 0.1 to 10 | – | – |
| O=C(NCCCCNC(=O)NCCOCCOCCNC(=O)Nc1ccc(O[C@H]2c3ccccc3C[C@@H]2N2CCCCC2)cc1)NCCOCCOCCNC(=O)Nc1ccc(O[C@H]2c3ccccc3C[C@@H]2N2CCCCC2)cc1 [Example 38] | < 0.1 | – | FFS (fecal form score) ([1]; oral gavage 3 mg/kg): 1; response vs control in vivo at 3 mg/kg ([1]; oral gavage 3 mg/kg): > 75% |
| O=C(NCCCCNC(=O)NCCOCCOCCNS(=O)(=O)c1ccc(O[C@H]2c3cc(Cl)ccc3C[C@@H]2N2CCCCC2)cc1)NCCOCCOCCNS(=O)(=O)c1ccc(O[C@H]2c3cc(Cl)ccc3C[C@@H]2N2CCCCC2)cc1 [Example 18] | < 0.1 | – | – |
| NC(CCC(=O)NCCOCCOCCOCCNS(=O)(=O)c1ccc(O[C@H]2c3ccccc3C[C@@H]2N2CCCCC2)cc1)(CCC(=O)NCCOCCOCCOCCNS(=O)(=O)c1ccc(O[C@H]2c3ccccc3C[C@@H]2N2CCCCC2)cc1)CCC(=O)NCCOCCOCCOCCNS(=O)(=O)c1ccc(O[C@H]2c3ccccc3C[C@@H]2N2CCCCC2)cc1 [Example 10, 4-amino-4-(13-oxo-1-(4-((1S,2S)-2-(piperidin-1-yl)-2,3-dihydro-1H-inden-1-yloxy)phenylsulfonamido)-3,6,9-trioxa-12-azapentadecan-15-yl)-N1,N7-bis(2-(2-(2-(2-(4-((1S,2S)-2-(piperidin-1-yl)-2,3-dihydro-1H-inden-1-yloxy)phenylsulfonamido)ethoxy)ethoxy)ethoxy)ethyl)heptanediamide] | < 0.1 | – | – |
| CN(C)[C@H]1Cc2c(Cl)cc(Cl)cc2[C@@H]1Oc1ccc(S(=O)(=O)N(C)CCOCCOCCNC(=O)NCCCCNC(=O)NCCOCCOCCN(C)S(=O)(=O)c2ccc(O[C@H]3c4cc(Cl)cc(Cl)c4C[C@@H]3N(C)C)cc2)cc1 [Example 26] | < 0.1 | 35 to 75 | FFS (fecal form score) ([1]; oral gavage 10 mg/kg): 1 |
| O=C(NCCCCNC(=O)NCCOCCOCCNS(=O)(=O)c1ccc(O[C@H]2c3ccccc3C[C@@H]2N2CC[C@@H](O)C2)cc1)NCCOCCOCCNS(=O)(=O)c1ccc(O[C@H]2c3ccccc3C[C@@H]2N2CC[C@@H](O)C2)cc1 [Example 31] | < 0.1 | – | – |
| CN(C)[C@H]1Cc2c(Cl)cc(Cl)cc2[C@@H]1Oc1ccc(S(=O)(=O)NCCOCCOCCNC(=O)CCC(=O)NCCOCCOCCNS(=O)(=O)c2ccc(O[C@H]3c4cc(Cl)cc(Cl)c4C[C@@H]3N(C)C)cc2)cc1 [Example 8, N1,N4-bis(2-(2-(2-(4-((1S,2S)-4,6-dichloro-2-(dimethylamino)-2,3-dihydro-1H-inden-1-yloxy)phenylsulfonamido)ethoxy)ethoxy)ethyl)succinamide] | < 0.1 | – | response vs control in vivo at 3 mg/kg ([1]; oral gavage 3 mg/kg): 35 to 75% |

Further lines, with some results ahead:

| IC50 (human NHE3) [µM] | Structure (SMILES) | response vs control in vivo at 10 mg/kg ([1]; oral gavage 10 mg/kg) [%] | other results |
| --- | --- | --- | --- |
| > 10 | O=C(NCCCCNC(=O)NCCOCCOCCNS(=O)(=O)c1ccc(O[C@H]2c3ccccc3C[C@@H]2N2CCCC2)cc1)NCCOCCOCCNS(=O)(=O)c1ccc(O[C@H]2c3ccccc3C[C@@H]2N2CCCC2)cc1 [Example 19] | 35 to 75 | – |
| < 0.1 | O=C(NCCOCCOCCOCCNS(=O)(=O)c1ccc(O[C@H]2c3ccccc3C[C@@H]2N2CCCCC2)cc1)c1cccc(C(=O)NCCOCCOCCOCCNS(=O)(=O)c2ccc(O[C@H]3c4ccccc4C[C@@H]3N3CCCCC3)cc2)c1 [Example 35] | > 75 | – |
| < 0.1 | CC(N)(CCC(=O)NCCOCCOCCNS(=O)(=O)c1ccc(O[C@H]2c3ccccc3C[C@@H]2N2CCCCC2)cc1)CCC(=O)NCCOCCOCCNS(=O)(=O)c1ccc(O[C@H]2c3ccccc3C[C@@H]2N2CCCCC2)cc1 [Example 37] | 35 to 75 | FFS (fecal form score) ([1]; oral gavage 10 mg/kg): 1 |
| < 0.1 | O=C(NCCOCCOCCNS(=O)(=O)c1ccc(O[C@H]2c3ccccc3C[C@@H]2N2CCCCC2)cc1)c1cccc(C(=O)NCCOCCOCCNS(=O)(=O)c2ccc(O[C@H]3c4ccccc4C[C@@H]3N3CCCCC3)cc2)c1 [Example 33] | 35 to 75 | – |
| < 0.1 | O=C(NCCOCCOCCOCCNS(=O)(=O)c1ccc(O[C@H]2c3ccccc3C[C@@H]2N2CCCCC2)cc1)c1ccc(C(=O)NCCOCCOCCOCCNS(=O)(=O)c2ccc(O[C@H]3c4ccccc4C[C@@H]3N3CCCCC3)cc2)cc1 [Example 34] | > 75 | – |
| < 0.1 | CC(C)(C(=O)NCCOCCOCCOCCNS(=O)(=O)c1ccc(O[C@H]2c3ccccc3C[C@@H]2N2CCCCC2)cc1)C(=O)NCCOCCOCCOCCNS(=O)(=O)c1ccc(O[C@H]2c3ccccc3C[C@@H]2N2CCCCC2)cc1 [Example 7, 2,2-dimethyl-N1,N3-bis(2-(2-(2-(2-(4-((1S,2S)-2-(piperidin-1-yl)-2,3-dihydro-1H-inden-1-yloxy)phenylsulfonamido)ethoxy)ethoxy)ethoxy)ethyl)malonamide] | 35 to 75 | – |
